# Test results from patent US20040023884A1, “Biologically active peptides from functional domains of bactericidal/permeability-increasing protein and uses thereof” (priority 1993, published 2004).
# Ends that are not written are not given here.
# B1: rLBP: recombinant lipopolysaccharide binding protein (LBP holoprotein) (protein, UniProt P18428 26-481, looked up)
# Lipopolysaccharide-binding …: ANPGLVARITDKGLQYAAQEGLLALQSELLRITLPDFTGDLRIPHVGRGRYEFHSLNIHSCELLHSALRPVPGQGLSLSISDSSIRVQGRWKVRKSFFKLQGSFDVSVKGISISVNLLLGSESSGRPTVTASSCSSDIADVEVDMSGDLGWLLNLFHNQIESKFQKVLESRICEMIQKSVSSDLQPYLQTLPVTTEIDSFADIDYSLVEAPRATAQMLEVMFKGEIFHRNHRSPVTLLAAVMSLPEEHNKMVYFAISDYVFNTASLVYHEEGYLNFSITDDMIPPDSNIRLTTKSFRPFVPRLARLYPNMNLELQGSVPSAPLLNFSPGNLSVDPYMEIDAFVLLPSSSKEPVFRLSVATNVSATLTFNTSKITGFLKPGKVKVELKESKVGLFNAELLEALLNYYILNTFYPKFNDKLAEGFPLPLLKRVQLYDLGLQIHKDFLFLGANVQYMRV
# Tests used:
# [1] = system: E. coli 0111:B4 (smooth) bacteria; test: Radial diffusion bactericidal assay, E. coli 0111:B4; assay type: cell-based; details: radial diffusion; PROBIT analysis; E. coli O111:B4 (smooth)
# [2] = system: rough mutant E. coli J5 bacteria; test: Radial diffusion bactericidal assay, E. coli J5; assay type: cell-based; details: for pmol added to well to achieve a 30 mm^2 bactericidal zone, E. coli J5: radial diffusion, PROBIT analysis, E. coli J5 (rough); for fold reduction in bactericidal activity in the radial diffusion assay: alanine variant vs unsubstituted peptide
# How it was run: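 Wells received 5 or 10 μL of BPI fragment, pre-incubated 3 h at 37 °C. The underlayer agarose carried washed log-phase organisms at 4×10^6 CFU/mL.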
# E. coli 0113 LPS = test: Limulus Amoebocyte Lysate (LAL) inhibition assay; assay type: biochemical; details: for LAL (relative difference): alanine variant relative to BPI.13
# Description: BPI proteolytic fragments produced according to Example 1 were subjected to a Limulus Amoebocyte Lysate (LAL) inhibition assay to determine LPS binding properties of these fragments. Specifically, each of the fragments were mixed in Eppendorf tubes with a fixed concentration of E. coli 0113 LPS (4 ng/mL final concentration) and incubated at 37° C. for 3 hours with occasional shaking. Addition controls comprising rBPI23 at 0.05 μg/mL were also tested. Following incubation, 360 μL of Dulbecco's phosphate buffered saline (D-PBS; Grand Island Biological Co. (GIBCO), Long Island, N.Y.) were added per tube to obtain an LPS concentration of 200 pg/mL for the LAL assay. Each sample was then transferred into Immulon II strips (Dynatech, Chantilly, Va.) in volumes of 50 μl per well.
# Limulus amoebocyte Lysate (Quantitative Chromogenic LAL kit, Whitaker Bioproducts, Inc., Walkersville, Md.) was added at 50 μL per well and the wells were incubated at room temperature for 25 minutes. Chromogenic substrate was then added at a volume of 100 μL per well and was well mixed. After incubation for 20 to 30 minutes at room temperature, the reaction was stopped with addition of 100 μL of 25% (v/v) acetic acid. Optical density at 405 nm was then measured in a multiplate reader (Model Vmax, […], Menlo Park, Calif.) with the results shown in FIG. 2 in terms of percent inhibition of LPS. In this Figure, the filled circle represents rBPI23; the open circle represents Asp-N fragment A3; the x represents Asp-N fragment A2, the filled square represents Asp-N fragment A4; the filled triangle represents Asp-N fragment A1A2; the open square represents Asp-N fragment A6a; the small open triangle represents CNBr fragment C3; and the small filled square represents CNBr fragment C1/C5.
# [3] = 3H-heparin binding assay (affinity and capacity); details: for Heparin Capacity: heparin bound at saturation; for Kd: read-out: Heparin Affinity
# How it was run: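 Bound 3H-heparin was counted by liquid scintillation after 1 h incubation at 4 °C with fragments immobilised on PVDF-bottomed wells, then washing in blocking buffer. Signal was corrected for BSA-related background, and varying amounts of rBPI23 were used as positive control.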
# C. albicans = test: Radial diffusion fungicidal assay, Candida albicans; assay type: cell-based; details: radial diffusion
# Candida albicans = assay type: cell-based; details: for MIC (x Fold change in fungicidal activity): alanine variant relative to BPI.13
# [4] = system: zymosan-stimulated NO production by RAW 264.7 cells; test: Zymosan-stimulated NO production by RAW 264.7 cells; assay type: cell-based, mouse
# Description: An additional LPS neutralization screening assay for BPI functional domain peptides was developed using an assay for NO production in mouse cells treated with LPS (see Lorsbach et al., 1993, J. Biol. Chem. 268: 1908-1913). In this assay, mouse RAW 264.7 cells (ATCC Accession No. TIB71) were treated with bacterial LPS. The cells were incubated in 96-well plates and stimulated for 2 hours with E. coli 0113 LPS or zymosan, in the presence or absence of _-interferon, rLBP, fetal bovine serum (FBS) or normal human serum (NHS), or rBPI21Δcys. After this incubation, the cells were washed with fresh media and incubated overnight in media containing 10% FCS. The NO released from the cells accumulated in the media and spontaneously converted to nitrite. This nitrite was assayed in situ by the Griess reaction, as follows. The nitrite was reacted with the primary amine of an added sulfanilamide and formed a diazonium salt. This salt was then reacted with added naphthylethylenediamine to form a red azo-dyc. The Griess reaction was performed at room temperature in about 10 minutes. The amount of produced NO was estimated from a standard curve of Griess reaction products determined spectrophotometrically as Absorbance at a wavelength of 550 nm.
Molecule,"pmol added to well to achieve a 30 mm^2 bactericidal zone, E. coli O111:B4 [1]","pmol added to well to achieve a 30 mm^2 bactericidal zone, E. coli J5 [2]",LAL / LPS inhibition activity (in words) (E. coli 0113 LPS),Heparin Capacity [3] [ng],Kd [3] [nM],C. albicans: pmol required for 30 mm^2 zone (C. albicans) [pmol],MIC C. alb (Candida albicans) [µg/mL],MIC (x Fold change in fungicidal activity) (Candida albicans),LAL (relative difference) (E. coli 0113 LPS),fold reduction in bactericidal activity in the radial diffusion assay [2],"HEPCAP (x Fold change in activity) ([3]; heparin binding capacity, relative to BPI.13)",decline of Kd of heparin binding ([3]; vs unsubstituted peptide) [fold],inhibition of zymosan-stimulated NO production (in words) [4]
ASKVGWLIQLFHKK [BPI.31],b (no detectable activity up to 5 μg/well),937.60 pmol,moderate decrease in LPS-binding activity,205.1,252,426.21,6.25,=,–,–,–,–,–
KSKVGWAIQLFHKK [BPI.37],b (no detectable activity up to 5 μg/well),"1,284.00 pmol",–,136.7,189,252.71,6.25,=,= (no difference in the LAL assay),–,–,–,–
KSKVGALIQLFHKK [BPI.36],b (no detectable activity up to 5 μg/well),"1,652.00 pmol",large decrease in LPS-binding activity,80.2,379,196.96,6.25,=,–,approximately 5 fold,–,–,–
KSKVGWLAQLFHKK [BPI.38],b (no detectable activity up to 5 μg/well),"1,698.20 pmol",–,194.3,579,390.65,6.25,=,= (no difference in the LAL assay),–,–,–,–
KSAVGWLIQLFHKK [BPI.33],b (no detectable activity up to 5 μg/well),575.40 pmol,moderate decrease in LPS-binding activity,230.7,492,603.44,6.25,=,–,–,–,–,–
KSKAGWLIQLFHKK [BPI.34],b (no detectable activity up to 5 μg/well),916.20 pmol,moderate decrease in LPS-binding activity,205.1,518,319.13,6.25,=,–,–,–,–,–
KSKVGWLIQLFHAK [BPI.43],"4,872.30 pmol",729.40 pmol,–,283.9,492,784.78,12.50,–,= (no difference in the LAL assay),–,–,–,–
KSKVGWLIQLAHKK [BPI.41],b (no detectable activity up to 5 μg/well),"2,465.40 pmol",–,119.1,469,733.70,3.13,–,= (no difference in the LAL assay),–,–,–,–
KSKVGWLIQAFHKK [BPI.40],b (no detectable activity up to 5 μg/well),"1,760.10 pmol",large decrease in LPS-binding activity,160.5,547,253.17,3.13,–,= (no difference in the LAL assay),approximately 5 fold,–,–,–
KSKVGWLIQLFAKK [BPI.42],"3,731.70 pmol",264.80 pmol,–,369.1,820,548.49,6.25,=,= (no difference in the LAL assay),–,=1.0 x Fold,1.2,–
KAKVGWLIQLFHKK [BPI.32],b (no detectable activity up to 5 μg/well),613.80 pmol,moderate decrease in LPS-binding activity,217.1,340,293.62,3.13,–,–,–,–,–,–
B1,–,–,–,–,–,–,–,–,–,–,–,–,no significant inhibition
